# Measurements from paper PMC10845951, “Characterization of a selective, iron-chelating antifungal compound that disrupts fungal metabolism and synergizes with fluconazole” (Microbiology Spectrum, 2024).
# Tested on: C. glabrata gene expression
# Assay: RNA sequencing (gene regulation)
# Assay type: cell-based, Candida glabrata
# Conditions: for Log2 Fold-Change: vs DMSO
# Procedure: Cells from overnight precultures in YPD medium were reinoculated in fresh YNB −iron medium (see “Culture maintenance” for contents) without iron and grown until OD600 of 0.4. […] Cells were collected from three independent experiments, snap frozen, and stored at −80°C. Total RNA purification was performed as previously described using the RNeasy Mini Kit (74104, Qiagen), and gDNA removal was made using the RNase-Free DNase Set kit (79254, Qiagen). RNA quantification and quality control were done with a Tape Station 4150 (Agilent) ([59]).
# Library preparation and sequencing were performed at GenomEast (IGBMC, Illkirch, France). One DMSO 0.05% sample was excluded from the analysis due to insufficient quality. The library was sequenced on Illumina Hiseq 4000 sequencer as single-read 50-base reads following Illumina’s instructions. Reads were pre-processed in order to remove adapter, polyA, and low-quality sequences (Phred quality score below 20). Reads shorter than 40 bases were discarded from further analysis. These pre-processing steps were performed using cutadapt version 1.10 ([60]). Image analysis and base calling were performed using RTA 2.7.7 and bcl2fastq2.17.1.14. Adapter dimer reads were removed using DimerRemover (https://sourceforge.net/projects/dimerremover/). The quality of the RNAseq reads was examined using FastQC 0.11.2 (http://www.bioinformatics.babraham.ac.uk/projects/fastqc/) and FastQScreen 0.5.1 (https://www.bioinformatics.babraham.ac.uk/projects/fastq_screen/). Reads were mapped onto the ASM254v2 assembly of Candida glabrata genome using STAR version 2.5.3a ([61]). Gene expression quantification was performed from uniquely aligned reads using htseq-count version 0.6.1p1 ([62]), with annotations from Ensembl fungi version 50 and union mode. Only non-ambiguously assigned reads have been retained for further analyses. Read counts were normalized across samples with the median-of-ratios method ([63]). Comparisons were implemented in the Bioconductor package DESeq2 version 1.16.1 using the test for differential expression ([64]). Genes with no P-value corresponded to genes with high Cook’s distance that were filtered out. P-values were adjusted for multiple testing using the Benjamini and Hochberg method ([65]). Genes with no adjusted P-value correspond to genes filtered out in the independent filtering step in order to remove reads from genes that have no or little chance of showing evidence of significant differential expression.
smiles,measurement,setting,value
"c1ccc(-c2cccc(-c3ccccn3)n2)nc1 [2,2′:6′,2′′-terpyridine]",genes significantly downregulated,"10 µM, 1 h",220 genes
same,genes significantly upregulated,"10 µM, 1 h",224 genes
same,Log2 Fold-Change,ALD5 CAGL0J03212g,0.7544
same,Log2 Fold-Change,AP5 CAGL0K08756g,0.9964
same,Log2 Fold-Change,APE1 CAGL0K08536g,0.6939
same,transcriptional response,C. glabrata and S. cerevisiae,strong iron starvation response
same,Log2 Fold-Change,CAGL0A03674g,0.5588
same,Log2 Fold-Change,CAGL0B00484g,0.7628
same,Log2 Fold-Change,CAGL0B00792g,1.214
same,Log2 Fold-Change,CAGL0B00880g,0.7009
same,Log2 Fold-Change,CAGL0B01485g,0.6219
same,Log2 Fold-Change,CAGL0B02343g,1.023
same,Log2 Fold-Change,CAGL0H06963g,0.7275
same,Log2 Fold-Change,CAGL0H06985g,0.7901
same,Log2 Fold-Change,CAGL0H07205g,0.5522
same,Log2 Fold-Change,CAGL0H08393g,1.535
same,Log2 Fold-Change,CAGL0H09966g,1.521
same,Log2 Fold-Change,CAGL0I00264g,0.9978
same,Log2 Fold-Change,CAGL0I02354g,0.6425
same,Log2 Fold-Change,CAGL0I02376g,0.6418
same,Log2 Fold-Change,CAGL0I02398g,0.5822
same,Log2 Fold-Change,CAGL0I02508g,0.5529
same,Log2 Fold-Change,CAGL0I02684g,0.5135
same,Log2 Fold-Change,CAGL0I03344g,0.7316
same,Log2 Fold-Change,CAGL0I03608g,0.7862
same,Log2 Fold-Change,CAGL0I03630g,0.6284
same,Log2 Fold-Change,CAGL0I04290g,0.6237
same,Log2 Fold-Change,CAGL0I05060g,0.5728
same,Log2 Fold-Change,CAGL0I05654g,0.7141
same,Log2 Fold-Change,CAGL0I09350g,0.5587
same,Log2 Fold-Change,CAGL0I09702g,0.5611
same,Log2 Fold-Change,CAGL0I10670g,0.9553
same,Log2 Fold-Change,CAGL0J00451g,2.136
same,Log2 Fold-Change,CAGL0J00473g,0.7426
same,Log2 Fold-Change,CAGL0J01023g,1.022
same,Log2 Fold-Change,CAGL0J01045g,0.9433
same,Log2 Fold-Change,CAGL0J02376g,0.7958
same,Log2 Fold-Change,CAGL0J03718g,0.5395
same,Log2 Fold-Change,CAGL0J05412g,0.5243
same,Log2 Fold-Change,CAGL0J07568g,0.7185
same,Log2 Fold-Change,CAGL0J07980g,0.7919
same,Log2 Fold-Change,CAGL0J08250g,0.5358
same,Log2 Fold-Change,CAGL0J08910g,0.5502
same,Log2 Fold-Change,CAGL0J09196g,0.506
same,Log2 Fold-Change,CAGL0J09460g,0.6815
same,Log2 Fold-Change,CAGL0J10032g,0.7428
same,Log2 Fold-Change,CAGL0J10252g,0.8692
same,Log2 Fold-Change,CAGL0J10912g,0.7791
same,Log2 Fold-Change,CAGL0J11066g,0.8417
same,Log2 Fold-Change,CAGL0J11088g,0.5227
same,Log2 Fold-Change,CAGL0J11242g,0.9997
same,Log2 Fold-Change,CAGL0J11286g,0.9034
same,Log2 Fold-Change,CAGL0K02211g,0.9809
same,Log2 Fold-Change,CAGL0K02387g,0.933
same,Log2 Fold-Change,CAGL0K02431g,0.8737
same,Log2 Fold-Change,CAGL0K03861g,0.5943
same,Log2 Fold-Change,CAGL0K05049g,0.5707
same,Log2 Fold-Change,CAGL0K05555g,0.5483
same,Log2 Fold-Change,CAGL0K06215g,1.181
same,Log2 Fold-Change,CAGL0K07007g,1.24
same,Log2 Fold-Change,CAGL0K07898g,0.62
same,Log2 Fold-Change,CAGL0K08272g,0.5171
same,Log2 Fold-Change,CAGL0K08360g,0.5636
same,Log2 Fold-Change,CAGL0K09284g,1.197
same,Log2 Fold-Change,CAGL0K09372g,0.5402
same,Log2 Fold-Change,CAGL0K09614g,0.8683
same,Log2 Fold-Change,CAGL0K09922g,0.6435
same,Log2 Fold-Change,CAGL0L00583g,0.7346
same,Log2 Fold-Change,CAGL0L02739g,0.6875
same,Log2 Fold-Change,CAGL0L02871g,0.8194
same,Log2 Fold-Change,CAGL0L03047g,0.9793
same,Log2 Fold-Change,CAGL0L03696g,0.5808
same,Log2 Fold-Change,CAGL0L04092g,0.5318
same,Log2 Fold-Change,CAGL0L04114g,0.5841
same,Log2 Fold-Change,CAGL0L04950g,0.896
same,Log2 Fold-Change,CAGL0L05170g,0.8533
same,Log2 Fold-Change,CAGL0L05258g,1.271
same,Log2 Fold-Change,CAGL0L05500g,0.7913
same,Log2 Fold-Change,CAGL0L05566g,0.7478
same,Log2 Fold-Change,CAGL0L05786g,1.136
same,Log2 Fold-Change,CAGL0L06468g,0.5199
same,Log2 Fold-Change,CAGL0L06754g,0.7195
same,Log2 Fold-Change,CAGL0L07678g,0.9514
same,Log2 Fold-Change,CAGL0L07832g,0.9435
same,Log2 Fold-Change,CAGL0L08096g,0.673
same,Log2 Fold-Change,CAGL0L08206g,0.6805
same,Log2 Fold-Change,CAGL0L08756g,0.7529
same,Log2 Fold-Change,CAGL0L08976g,0.7934
same,Log2 Fold-Change,CAGL0L10846g,0.7927
same,Log2 Fold-Change,CDC21 CAGL0K05467g,0.5322
same,Log2 Fold-Change,FTR1 CAGL0I06743g,1.014
same,Log2 Fold-Change,GAT1 CAGL0K07634g,0.7416
same,Log2 Fold-Change,HBN1 CAGL0B00990g,1.565
same,Log2 Fold-Change,HMX1 CAGL0A03905g,1.923
same,Log2 Fold-Change,KNH1 CAGL0H07997g,0.5109
same,Log2 Fold-Change,NOP8 CAGL0B01397g,0.7894
same,Log2 Fold-Change,PDR16 CAGL0J07436g,0.9143
same,Log2 Fold-Change,SNQ2 CAGL0I04862g,0.5824
same,Log2 Fold-Change,SUT1 CAGL0I04246g,0.7641
same,Log2 Fold-Change,SUT2 CAGL0L09383g,0.6785
same,Log2 Fold-Change,TRR1 CAGL0I01166g,1.667
